≈ marks a conversion by molar mass, not a printed value. Where two headings read alike, the source gives them in different places.
Experiments:
[1] = tested on: H441 p-ERK; test: Cell p-ERK assay (HTRF), NCI-H441 cells; type: cell-based, human; conditions: Homo sapiens; NCI-H441 cells (KRAS G12V), 3 h incubation
Outline: (§1)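 Phospho-ERK (T202/Y204) was measured by HTRF in lysates after 3 h compound treatment at 37 °C. Cells had been plated the previous day at 20000 per well for NCI-H441 and 10000 per well for AsPC-1. Four-parameter dose-response fitting of % inhibition gave IC50 values.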

[2] = tested on: AsPC-1 p-ERK; test: Cell p-ERK assay (HTRF), AsPC-1 cells; type: cell-based, human; conditions: Homo sapiens
Outline: as §1

[3] = Solubility experiment (HPLC, external standard); type: physicochemical; conditions: 37 °C, 24 h; for solubility at 24 h: ph 7.4 medium, pH 7.4, pH 7.4 medium; for Solubility at pH 7.4 (µg/mL): pH 7.4 medium
Method: This experiment was intended to determine the solubility of the compounds in media at different pH values. The materials used in the experiment included: a pH 1.2 medium, a pH 4.5 medium, a pH 7.4 medium, and a diluent (acetonitrile/water = 50/50). 1. The preparation methods for media are as follows:
One centrifuge tube (containing about 2 mg of the test sample) was taken, 1 mL of DMSO was added to completely dissolve the test sample, and the mixture was marked as stock-1. 0.2 mL of stock-1 was transferred into a 10 mL volumetric flask, and then the 50:50 (acetonitrile/water) solution was added to bring the volume to the mark, so as to give a control solution.
Additionally, centrifuge tubes each containing about 1 mg of the test sample were taken, 1 mL of the corresponding medium solution was then added, and the tubes were shaken on a 37 °C water bath shaker for 24 h. After centrifugation for 3 times (centrifugation time: 10 min, rotation speed: 12000 rpm), 0.2 mL of the supernatants were taken, 0.8 mL of the diluent (acetonitrile/water = 50/50) was added to each tube, and the mixtures were vortexed and mixed well to give solubility samples.
The solubility samples described above and the control solution were sequentially analyzed by high performance liquid chromatography. The chromatographic conditions are as follows:
The actual concentration of the compound in each solubility sample was calculated according to an external standard method. Concentration (μg/mL) = (ASample × CControl × DSample)/(AControl)∗1000; [formula] Asample: the peak area of the target peak in the sample solution; Ccontrol: the concentration (mg/mL) of the control solution; Dsample: the dilution factor of the sample solution; Acontrol: the peak area of the target peak in the control solution.

[4] = tested on: NCI-H441 cells; test: 3D cell proliferation assay (CellTiter Glo-3D), NCI-H441; type: cell-based, human; conditions: Homo sapiens, 120 h, NCI-H441 cells (KRAS G12V), 2% FBS, 5 days, read-out: H441 AP IC50
Outline: (§2)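 IC50 values come from four-parameter fits of inhibition rate against log compound concentration, using CellTiter-Glo luminescence read after 5 days' exposure. AsPC-1 and NCI-H441 were plated at 800 cells per well in low-serum (2% FBS) medium. Compound was dosed the day after seeding, with incubation at 37 °C, 5% CO2.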

[5] = tested on: AsPC-1 cells; test: 3D cell proliferation assay (CellTiter Glo-3D), AsPC-1; type: cell-based, human; conditions: Homo sapiens, ASPC1, 120 h
Outline: as §2

[6] = ASPC1, 3 h, read-out: AsPC-1 p-ERK IC50(nM)
[7] = ASPC1, AsPC-1 cells (KRAS G12D), 3 h incubation, read-out: AsPC-1 p-ERK IC50
[8] = AsPC-1 cells (KRAS G12D), 3D, 2% FBS, 5 days, read-out: AsPC-1 AP IC50

| SMILES | IC50 [1] | IC50 [2, 6] | solubility at 24 h [3] | IC50 [4] | IC50 ([5]; read-out: AsPC-1 AP IC50(nM)) | Solubility at pH 7.4 (µg/mL) ([3]; 1440 min) | Solubility at pH 7.4 (µg/mL) [3] | IC50 [2, 7] | IC50 [5, 8] |
| --- | --- | --- | --- | --- | --- | --- | --- | --- | --- |
| CCn1c(-c2cc(C#CCN3CCC(C(=O)NCCO)CC3)cnc2[C@H](C)OC)c2c3cc(ccc31)-c1csc(n1)C[C@H](NC(=O)[C@H]1[C@@H]3COC[C@@H]31)C(=O)N1CCC[C@H](N1)C(=O)OCC(C)(C)C2 (atropisomer, axis not shown; (Ra)) [Compound Z21, 1-(3-(5-((6^3S,4S,Z)-4-((1R,5S,6r)-3-oxabicyclo[3.1.0]hexane-6-carboxamido)-1^1-ethyl-10,10-dimethyl-5,7-dioxo-6^1,6^2,6^3,6^4,6^5,6^6-hexahydro-1^1H-8-oxa-2(4,2)-thiazola-1(5,3)-indola-6(1,3)-pyridazinacycloundecaphane-1^2-yl)-6-(Ra)-((S)-1-methoxyethyl)pyridin-3-yl)prop-2-yn-1-yl)-N-(2-hydroxyethyl)piperidine-4-carboxamide] | 510 pM |  | 9.71 µg/mL (≈ 10.2 µM) | 410 pM |  |  |  | 1.68 nM | 1.11 nM |
| CO[C@@H](C)c1ncc(C#CCN2CCS(=O)(=O)CC2)cc1-c1c2c3cc(ccc3n1CCCO)-c1csc(n1)C[C@H](NC(=O)[C@H]1[C@@H]3COC[C@@H]31)C(=O)N1CCC[C@H](N1)C(=O)OCC(C)(C)C2 (atropisomer, axis not shown; (Ra)) [Compound Z24-1, (1R,5S,6r)-N-((6^3S,4S,Z)-1^2-(5-(3-(1,1-dioxidothiomorpholino)prop-1-yn-1-yl)-(Ra)-2-((S)-1-methoxyethyl)-pyridin-3-yl)-1^1-(3-hydroxypropyl)-10,10-dimethyl-5,7-dioxo-6^1,6^2,6^3,6^4,6^5,6^6-hexahydro-1^1H-8-oxa-2(4,2)-thiazola-1(5,3)-indola-6(1,3)-pyridazinacycloundecaphane-4-yl)-3-oxabicyclo[3.1.0]hexane-6-carboxamide] | 3760 pM | 2.64 nM | 12.3 µg/mL (≈ 13.1 µM) | 1770 pM | 1.73 nM |  |  |  |  |
| CCn1c(-c2cc(C#CCN3CCC(C#N)(CO)CC3)c[n+]([O-])c2[C@H](C)OC)c2c3cc(ccc31)-c1csc(n1)C[C@H](NC(=O)[C@H]1[C@H](C)[C@@H]1C)C(=O)N1CCC[C@H](N1)C(=O)OCC(C)(C)C2 (atropisomer, axis not shown; (Ra)) [Compound Z45-1, 5-(3-(4-cyano-4-(hydroxymethyl)piperidin-1-yl)prop-1-yn-1-yl)-(Ra)-3-((6^3S,4S,Z)-4-((1r,2R,3S)-2,3-dimethylcyclopropane-1-carboxamido)-1^1-ethyl-10,10-dimethyl-5,7-dioxo-6^1,6^2,6^3,6^4,6^5,6^6-hexahydro-1^1H-8-oxa-2(4,2)-thiazola-1(5,3)-indola-6(1,3)-pyridazinacycloundecaphane-1^2-yl)-2-((S)-1-methoxyethyl)pyridine 1-oxide] | 600 pM |  | 5.01 µg/mL (≈ 5.45 µM) | 530 pM |  |  |  | 0.28 nM | 0.12 nM |
| COCCn1c(-c2cc(C#CCN3CCN(C(=O)CO)CC3)cnc2[C@H](C)OC)c2c3cc(ccc31)-c1csc(n1)C[C@H](NC(=O)[C@H]1[C@H](C)[C@@H]1C)C(=O)N1CCC[C@H](N1)C(=O)OCC(C)(C)C2 (atropisomer, axis not shown; (Ra)) [Compound Z63-1, (2R,3S)-N-((6^3S,4S,Z)-1^2-(5-(3-(4-(2-hydroxyacetyl)piperazin-1-yl)prop-1-yn-1-yl)-(Ra)-2-((S)-1-methoxyethyl)pyridin-3-yl)-1'-(2-methoxyethyl)-10,10-dimethyl-5,7-dioxo-6^1,6^2,6^3,6^4,6^5,6^6-hexahydro-1^1H-8-oxa-2(4,2)-thiazola-1(5,3)-indola-6(1,3)-pyridazinacycloundecaphane-4-yl)-2,3-dimethylcyclopropane-1-carboxamide] | 550 pM | 0.61 nM |  | 320 pM | 0.36 nM | 7.53 µg/mL |  |  |  |
| CCn1c(-c2cc(C#CCN3CCC(C#N)(CO)CC3)c[n+]([O-])c2[C@H](C)OC)c2c3cc(ccc31)-c1csc(n1)C[C@H](NC(=O)[C@H]1[C@H](C)[C@@H]1C)C(=O)N1CCC[C@H](N1)C(=O)OCC(C)(C)C2 (atropisomer, axis not shown; (Sa)) [Compound Z45-2, 5-(3-(4-cyano-4-(hydroxymethyl)piperidin-1-yl)prop-1-yn-1-yl)-(Sa)-3-((6^3S,4S,Z)-4-((1r,2R,3S)-2,3-dimethylcyclopropane-1-carboxamido)-1^1-ethyl-10,10-dimethyl-5,7-dioxo-6^1,6^2,6^3,6^4,6^5,6^6-hexahydro-1^1H-8-oxa-2(4,2)-thiazola-1(5,3)-indola-6(1,3)-pyridazinacycloundecaphane-1^2-yl)-2-((S)-1-methoxyethyl)pyridine 1-oxide] |  |  |  |  |  | 8.42 µg/mL |  |  |  |
| COCCn1c(-c2cc(C#CCN3CCN(C(=O)CO)CC3)cnc2[C@H](C)OC)c2c3cc(ccc31)-c1csc(n1)C[C@H](NC(=O)[C@H]1[C@H](C)[C@@H]1C)C(=O)N1CCC[C@H](N1)C(=O)OCC(C)(C)C2 (atropisomer, axis not shown; (Sa)) [Compound Z63-2, (2R,3S)-N-((6^3S,4S,Z)-1^2-(5-(3-(4-(2-hydroxyacetyl)piperazin-1-yl)prop-1-yn-1-yl)-(Sa)-2-((S)-1-methoxyethyl)pyridin-3-yl)-1^1-(2-methoxyethyl)-10,10-dimethyl-5,7-dioxo-6^1,6^2,6^3,6^4,6^5,6^6-hexahydro-1^1H-8-oxa-2(4,2)-thiazola-1(5,3)-indola-6(1,3)-pyridazinacycloundecaphane-4-yl)-2,3-dimethylcyclopropane-1-carboxamide] |  |  |  |  |  | 15.37 µg/mL |  |  |  |
| CCn1c(-c2cc(C#CCN3CCS(=O)(=O)CC3)cnc2[C@H](C)NC)c2c3cc(ccc31)-c1csc(n1)C[C@H](NC(=O)[C@H]1[C@H](C)[C@@H]1C)C(=O)N1CCC[C@H](N1)C(=O)OCC(C)(C)C2 (atropisomer, axis not shown; (Sa)) [Compound Z66-1, (1r,2R,3S)-N-((6^3S,4S,Z)-(Sa)-1^2-(5-(3-(1,1-dioxidothiomorpholino)prop-1-yn-1-yl)-2-((S)-1-(methylamino)ethyl)pyridin-3-yl)-11-ethyl-10,10-dimethyl-5,7-dioxo-6^1,6^2,6^3,6^4,6^5,6^6-hexahydro-1^1H-8-oxa-2(4,2)-thiazola-1(5,3)-indola-6(1,3)-pyridazinacycloundecaphane-4-yl)-2,3-dimethylcyclopropane-1-carboxamide] |  |  |  |  |  |  | 158.5 µg/mL |  |  |

Further lines, with some results ahead:

| IC50 [1] | IC50 [2, 6] | solubility at 24 h [3] | IC50 [4] | IC50 ([5]; read-out: AsPC-1 AP IC50(nM)) | Solubility at pH 7.4 (µg/mL) ([3]; 1440 min) | Solubility at pH 7.4 (µg/mL) [3] | SMILES | IC50 [2, 7] | IC50 [5, 8] |
| --- | --- | --- | --- | --- | --- | --- | --- | --- | --- |
| 1140 pM | 1.67 nM | 15 µg/mL (≈ 16.4 µM) |  |  |  |  | CCn1c(-c2cc(C#CCN3CCS(=O)(=O)CC3)cnc2[C@H](C)OC)c2c3cc(ccc31)-c1csc(n1)C[C@H](NC(=O)[C@@H](N)C1CCC1)C(=O)N1CCC[C@H](N1)C(=O)OCC(C)(C)C2 (atropisomer, axis not shown; (Ra)) [Compound Z16, (2S)-2-amino-2-cyclobutyl-N-((6^3S,4S,Z)-(Ra)-1^2-(5-(3-(1,1-dioxidothiomorpholino)prop-1-yn-1-yl)-2-((S)-1-methoxyethyl)pyridin-3-yl)-1^1-ethyl-10,10-dimethyl-5,7-dioxo-6^1,6^2,6^3,6^4,6^5,6^6-hexahydro-1^1H-8-oxa-2(4,2)-thiazola-1(5,3)-indola-6(1,3)-pyridazinacycloundecaphane-4-yl)acetamide] |  |  |
| 640 pM | 0.51 nM | 20.8 µg/mL (≈ 22.8 µM) | 440 pM | 0.78 nM |  |  | CCn1c(-c2cc(C#CCN3CCS(=N)(=O)CC3)cnc2[C@H](C)OC)c2c3cc(ccc31)-c1csc(n1)C[C@H](NC(=O)[C@H]1[C@@H]3COC[C@@H]31)C(=O)N1CCC[C@H](N1)C(=O)OCC(C)(C)C2 (atropisomer, axis not shown; (Ra)) [Compound Z27] |  |  |

Reference: patent publication EP4775582A1, “MACROCYCLIC COMPOUND AND ANTIBODY-DRUG CONJUGATE THEREOF” (Genfleet Therapeutics (Shanghai) Inc., priority 2023, dated 2025)
